According to paper PMC10764104, “Discovery of Molecular Glue Degraders via Isogenic Morphological Profiling” (ACS Chemical Biology, 2023):

Biological target: T1, GSPT2 G566N (Homo sapiens, UniProt Q8IYD1, G566N)
T1 construct: expressed in transfected cells; host or cells: RKO cells, lentiviral transduction, puromycin-selected
Experiment: Western blot (HA-tag) of G-loop mutant GSPT2 in RKO cells
Format: cell-based
Settings: RKO cells stably overexpressing HA-GSPT2 G566N, 16 h; 10 μM FL2-14 or 10 nM CC-885
Method: Figure 3 FL2-14 is a selective GSPT2 molecular glue degrader. (A) Structure of FL2-14 comprising fluorosulfate scaffold FL2 (black) and tail group modification 14 (blue). (B) DMSO-normalized quantitative proteomics after 16 h of treatment with FL2-14 (10 μM) in RKO WT (n = 2). […] (C) Structural alignment of AlphaFold models of GSPT1 (AF-P15170-F1-model_v4 in gray) and GSPT2 (AF-Q8IYD1-F1-model_v4 in blue). (D) Validation of GSPT2 degradation by FL2-14. […] (E) Dose–response of FL2-14 in RKO and HEK293T cells. Cells were treated with the FL2-14 (0 to 10 μM) for 16 h. (F) Degradation of GSPT2^WT or GSPT2^G566N.
Prediction of the G‐loop degron sequence in GSPT2
We first compiled all CRBN degron sequences with known crystal structures (Table S 2). We subsequently discarded 6UML as its degron sequence included an alanine instead of the typical glycine observed in the seventh amino acid residue of other degron sequences, leaving six degron sequences. We then scanned the latest AlphaFold structure of GSPT215 for a potential stretch of 10 amino acids that would align best with each degron sequence. We yielded the same stretch of amino acid residues from position 560 to 569 ([…]) and RMSD values under 0.5 Å.
Table S 2: List of crystal structures used for the computational prediction of the G‐loop degron sequence […]
PDB code Resolution (Å) Chain Segment Sequence Reference
Analysis of G‐loop mutation […]

T1 sequence (Q8IYD1 whole entry G566N): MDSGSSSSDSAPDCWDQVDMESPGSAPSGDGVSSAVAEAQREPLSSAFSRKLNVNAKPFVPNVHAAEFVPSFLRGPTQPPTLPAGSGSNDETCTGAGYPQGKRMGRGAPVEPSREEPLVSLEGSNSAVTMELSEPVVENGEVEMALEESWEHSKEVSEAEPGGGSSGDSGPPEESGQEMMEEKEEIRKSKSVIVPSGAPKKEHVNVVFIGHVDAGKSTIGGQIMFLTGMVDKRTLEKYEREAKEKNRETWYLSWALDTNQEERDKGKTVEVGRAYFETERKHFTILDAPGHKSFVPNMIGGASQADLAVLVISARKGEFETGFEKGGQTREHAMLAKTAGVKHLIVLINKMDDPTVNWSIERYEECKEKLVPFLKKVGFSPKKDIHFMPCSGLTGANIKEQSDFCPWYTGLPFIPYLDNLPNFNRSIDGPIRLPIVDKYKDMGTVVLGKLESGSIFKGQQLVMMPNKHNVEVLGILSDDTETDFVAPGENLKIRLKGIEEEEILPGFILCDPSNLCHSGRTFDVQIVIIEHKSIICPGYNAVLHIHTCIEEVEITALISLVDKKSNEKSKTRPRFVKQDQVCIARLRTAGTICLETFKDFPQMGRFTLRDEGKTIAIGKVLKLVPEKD

## CN(Cc1ncc(C2CC2)o1)S(=O)(=O)Oc1ccc(Nc2ccc3c(c2)C(=O)N(C2CCC(=O)NC2=O)C3=O)cc1 (stereo not shown) [FL2-14]
  degradation of HA-tagged GSPT2 G566N (glycine of G-loop replaced by asparagine): rescued degradation of GSPT2
